In PMC11302729, “Repurposing Hsp90 inhibitors as antimicrobials targeting two-component systems identifies compounds leading to loss of bacterial membrane integrity” (Microbiology Spectrum, 2024):
≈ marks a conversion by molar mass, not a printed value. Like-named read-outs stand apart in the source and are kept apart here.

Legend:
[1] = tested on: Enterococcus faecium vanA (strain E1654); assay: MIC (microdilution) against E. faecium; assay type: cell-based; conditions: for MIC: Enterococcus faecium, read-out: MIC E. faecium; for MIC E. faecium: Table ST1
Experimental: (§1) Staphylococcus aureus str. Newman, Enterococcus faecalis vanA (strain E0155), Enterococcus faecium vanA (strain E1654), Escherichia coli ATCC 25922, Escherichia coli D21f2 with a truncated LPS barrier, Escherichia coli JW5503 (ΔtolC) ([49]), Pseudomonas aeruginosa ATCC 27853, and Pasteurella haemolytica ATCC 29701 were grown in Mueller-Hinton Broth (MHB) (Oxoid, Basingstoke, UK) and incubated at 37°C.
(§2) The minimal inhibitory concentration was determined using the microdilution method following the guidelines of the European Committee on Antimicrobial Susceptibility Testing ([50]). Briefly, a series of twofold dilutions in MHB of each compound were made in a 96-well plate, with final concentrations ranging from 50 to 0.39 µg/mL in 100 µL final volume per well. A hundred microliters of 1:100 dilution of an overnight culture of the correspondent bacteria in MHB was added to each well. Plates were incubated for 18 hours at 37°C. MIC was recorded as the lowest concentration where no growth was detected as measured by optical density at 600 nm (OD600) using Spectramax M5 (Molecular Devices LLC, San Jose, CA, USA). […] Wells containing bacteria with or without 1% DMSO and medium alone were included as controls in every plate.

[2] = tested on: Enterococcus faecalis vanA (strain E0155); assay: MIC (microdilution) against E. faecalis; assay type: cell-based; conditions: for MIC: Enterococcus faecalis, read-out: MIC E. faecalis; for MIC E. faecalis: Table ST1
Experimental: as §1, §2

[3] = tested on: Pseudomonas aeruginosa ATCC 27853; assay: MIC (microdilution) against P. aeruginosa; assay type: cell-based; conditions: for MIC: Pseudomonas aeruginosa; for MIC P. aeruginosa: Table ST1
Experimental: as §1, §2

[4] = tested on: Escherichia coli JW5503 (ΔtolC); assay: MIC (microdilution) against E. coli JW5503; assay type: cell-based; conditions: for MIC: Escherichia coli, read-out: MIC E. coli JW5503; for MIC E. coli JW5503: Table ST1, ΔtolC mutant
Description: We also tested the inhibitory activity of compounds in two different E. coli mutants: (i) E. coli JW5503 that lacks TolC efflux pumps and (ii) E. coli D21f2 that has a defective LPS inner core increasing permeability of the outer membrane. E. coli D21f2 has a slightly higher susceptibility to DPP compounds than E. coli ATCC25922.
as §1, §2

[5] = target: T1, E. coli EnvZ (Escherichia coli, UniProt P0AEJ4); assay: HK autophosphorylation inhibition, EnvZ; assay type: biochemical
T1 construct: Cytoplasmic domains from S. aureus PhoR and E. coli EnvZ; His6; made in house; host or cells: E. coli RIL
Experimental: Cytoplasmic domains from S. aureus PhoR and E. coli EnvZ as well the CA domain of Thermotoga maritima CheA were cloned in pNIC28-Bsa4 ([54]) plasmid containing His6-tag expressed in E. coli RIL and purified as previously described ([21], [55], [56]) using His-affinity and size exclusion chromatography. Briefly, E. coli RIL strains carrying the appropriate plasmid were grown in 1 L Luria broth (LB) (Merck Millipore) supplemented with kanamycin (100 µg/mL) with shaking (200 r.p.m.) at 37°C. When OD600 reached 0.5, 1 mM isopropyl-ß-D-1-thiogalactopyranoside (IPTG) was added to induce protein expression and cells were grown for 3 more hours. Cells were harvested by centrifugation (4,000 g, 4°C), resuspended in 40 mL buffer A (50 mM Tris-HCl pH 8.0, 0.5 M NaCl, 10% glycerol, and 1 mM phenylmethanesulfonyl fluoride), sonicated (4°C, 5 min with pulses of 15 sec at intervals of 1 min), and centrifuged (11,000 g, 4°C, 60 min). Supernatant was passed through a 5-mL HisTrap HP column (GE Healthcare) equilibrated in buffer A using the AKTA system (GE Healthcare). His-column was washed with buffer A (80 mL), and a linear gradient of imidazole (range 0 to 0.25 M) in buffer A was applied. The purest fractions evaluated by SDS-PAGE were collected, concentrated by ultrafiltration in a Amicon Ultra-15 (10- or 30-kDa exclusion) (Merck Millipore), and further purified by gel filtration using Superdex 200 column (GE Healthcare), equilibrated in buffer B (50 mM TrisHCl, pH 8.0, 0.2 M NaCl, and 5% glycerol). Purified proteins were then concentrated using ultrafiltration and stored at −80°C.
Autophosphorylation inhibition assays were performed in kinase assay buffer [100 mM Tris-HCl (pH 8.0), 5 mM MgCl2, 10 mM DTT], containing 5 µg of purified HK and 10 mM ATP for 30 min at 25°C. The reaction was stopped by adding gel loading buffer containing 16% SDS before loading the reaction on a 12% SDS-PAGE. […] To detect autophosphorylation, the gel was transferred to a nitrocellulose membrane (GE Healthcare) at 100 V in the transfer buffer (25 mM Tris, 192 mM Glycine, 10% Methanol). The membrane was then blocked using Tris-buffered saline solution with 0.1% vol/vol Tween 20 (TBS-T) supplied with 5% bovine serum albumin. The phosphorylated histidine was detected by western blotting by then incubating the membrane for 60 min with 1:1,000 anti-N1-phosphohistidine antibody (Merck Millipore) in TBS-T followed by a washing step for 30 min with TBS-T and a final 60-min incubation with 1:10,000 horseradish […] anti-rabbit IgG (Promega) in TBS-T. Chemiluminescent reaction was measured using Pierce ECL immunoblotting substrate (Thermo Scientific) in a LAS 3000 image analyzer (Fujifilm Life Science, Tokyo, Japan) followed by densitometric analysis using Multi Gauge image-analysis software (Fujifilm Life Science, Tokyo, Japan). The inhibitor concentrations required to halve the chemiluminescence intensity (IC50) were determined using Prism 4.1 (GraphPad Software, San Diego, CA, USA).

[6] = tested on: S. aureus str. Newman; assay: Membrane permeability using SYTOX-Green, flow cytometry; assay type: cell-based; conditions: for % FITC stained bacteria 0.5 xMIC: 0.5× MIC; for % FITC stained bacteria 2 xMIC: 2× MIC; for Membrane damage: if considered to cause membrane damage to S. aureus
Experimental: S. aureus str. Newman was grown to exponential phase (OD600 = 0.4) in MHB media. […] Nisin (Sigma-Aldrich) and novobiocin (Sigma-Aldrich) were used as positive and negative controls for membrane permeabilization, and stained and unstained untreated controls were also included in each assay. After exposure, samples were centrifuged at 4,000 r.p.m. for 5 min and resuspended in PBS. Bacteria were dyed by adding the fluorescent nuclear stain SYTOX Green (Molecular Probes, Invitrogen) to a final concentration of 0.5 µM and incubating for 5 min in the dark. Samples were centrifuged again and resuspended with PBS to remove unbound stain. Three hundred microliters of each sample was transferred to a clean well in a 96-well clear-bottom plate (Corning Incorporated). Fluorescence was measured in CytoFLEX flow cytometer (Beckman Coulter, Brea, CA, USA) using the green (FITC) channel with the excitation wavelength at 488 nm. Overlay histograms were created with CytExpert Software (Beckman Coulter, Brea, CA, USA).

[7] = ATCC27853, read-out: MIC P. aeruginosa
[8] = ATCC27853, Table 1, read-out: MIC P. aeruginosa
[9] = bound from first screening at 2 mM

T1 sequence (P0AEJ4 180-450): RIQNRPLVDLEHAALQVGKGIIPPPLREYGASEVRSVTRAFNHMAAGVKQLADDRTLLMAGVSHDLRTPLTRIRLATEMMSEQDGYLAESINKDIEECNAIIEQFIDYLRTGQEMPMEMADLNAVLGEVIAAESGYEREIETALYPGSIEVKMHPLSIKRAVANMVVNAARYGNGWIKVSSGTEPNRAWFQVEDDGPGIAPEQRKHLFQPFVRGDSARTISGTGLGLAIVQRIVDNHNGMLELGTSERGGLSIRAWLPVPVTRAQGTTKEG

| SMILES | MIC [1] [µg/mL] | MIC E. faecium [1] [µg/mL] | MIC [2] [µg/mL] | MIC E. faecalis [2] [µg/mL] | MIC [3, 7] [µg/mL] | MIC P. aeruginosa [3] [µg/mL] | MIC [4] [µg/mL] | MIC E. coli JW5503 [4] [µg/mL] | IC50 ([5]; ± SD, n = 2, 10 mM ATP) [µM] | % FITC stained bacteria 0.5 xMIC ([6]; 5 min exposure) [%] | % FITC stained bacteria 1 xMIC ([6]; 1× MIC, 5 min exposure) [%] | % FITC stained bacteria 2 xMIC ([6]; 5 min exposure) [%] | Membrane damage [6] | MIC [3, 8] [µg/mL] | IC50 [5, 9] [µM] | Loss of membrane integrity ([6]; 1× MIC, 5 min exposure) |
| --- | --- | --- | --- | --- | --- | --- | --- | --- | --- | --- | --- | --- | --- | --- | --- | --- |
| COc1ccc(-c2c(C(F)(F)F)n[nH]c2-c2ccc(O)cc2O)cc1 [DPP-12] | 50 (≈ 143 µM) | 50 (≈ 143 µM) | 50 (≈ 143 µM) | 50 (≈ 143 µM) | > 250 | >250 | 12.5 (≈ 35.7 µM) | 12.5 (≈ 35.7 µM) | 427 ± 9.1 | 9.04 | 24.16 | 29.11 | MILD | – | – | – |
| COc1ccc(-c2[nH]nc(C(F)(F)F)c2-c2ccc(Cl)cc2)c(O)c1 [DPP-6] | 6.25 (≈ 16.9 µM) | 6.25 (≈ 16.9 µM) | 6.25 (≈ 16.9 µM) | 6.25 (≈ 16.9 µM) | – | >250 | 3.12 (≈ 8.46 µM) | 3.12 (≈ 8.46 µM) | 98 ± 11.8 | 36.93 | 44.48 | 48.91 | YES | > 250 | – | – |
| CCOc1ccc(-c2[nH]nc(C(F)(F)F)c2-c2ccc(Cl)cc2)c(O)c1 [DPP-7] | 3.12 (≈ 8.15 µM) | 3.12 (≈ 8.15 µM) | 3.12 (≈ 8.15 µM) | 3.12 (≈ 8.15 µM) | – | >250 | 3.12 (≈ 8.15 µM) | 3.12 (≈ 8.15 µM) | – | 42.44 | 50.30 | 54.59 | YES | > 250 | < 2000 | – |
| Oc1ccc(-c2n[nH]c(C(F)(F)F)c2-c2ccc(Cl)cc2)c(O)c1 [DPP-5] | 12.5 (≈ 35.2 µM) | 12.5 (≈ 35.2 µM) | 12.5 (≈ 35.2 µM) | 12.5 (≈ 35.2 µM) | – | >250 | 3.12 (≈ 8.8 µM) | 3.12 (≈ 8.8 µM) | 117 ± 6.3 | 13.40 | 13.42 | 41.29 | MILD | > 250 | – | did not cause significant loss of membrane integrity |
| COc1ccc(-c2c(C(F)(F)F)n[nH]c2-c2ccc(OC)cc2O)cc1 [DPP-13] | 25 (≈ 68.6 µM) | 25 (≈ 68.6 µM) | 25 (≈ 68.6 µM) | 25 (≈ 68.6 µM) | > 250 | >250 | 12.5 (≈ 34.3 µM) | 12.5 (≈ 34.3 µM) | 175 ± 10.1 | 35.10 | 45.40 | 45.44 | YES | – | – | – |
| COc1ccc(-c2[nH]nc(C(F)(F)F)c2-c2ccccc2)c(O)c1 [DPP-2] | 25 (≈ 74.8 µM) | 25 (≈ 74.8 µM) | 25 (≈ 74.8 µM) | 25 (≈ 74.8 µM) | – | >250 | 6.25 (≈ 18.7 µM) | 6.25 (≈ 18.7 µM) | – | 49.81 | 54.03 | 63.56 | YES | > 250 | < 2000 | – |
